Patent US20230372375A1, “SGLT-2 INHIBITOR SARCOSINE CO-CRYSTAL, PREPARATION METHOD THEREFOR AND USE THEREOF” (Beijing Creatron Institute of Pharmaceutical Research Co. …, priority 2020, published 2023)

Columns and labels:
[1] = Influencing factors test (physical and chemical stability) of canagliflozin crystal forms, Test Example 2; type: physicochemical; set-up: Impurity RRT0.73 content / Impurity RRT0.93 content / Impurity RRT1.12 content / Impurity RRT1.17 content / Impurity RRT2.25 content / Impurity RRT2.28 content / Impurity RRT0.57 content / Impurity RRT0.67 content: unit not given here
Experimental: The canagliflozin-sarcosine cocrystal and canagliflozin hemihydrate (original crystal form) were tested for influencing factors.

[2] = 1 g cannot be dissolved in 10000 ml; cited from earlier work
[3] = Directly exposed at 60° C. for 10 days
[4] = Directly exposed at 5000 LX for 10 days
[5] = Directly exposed at RH75% for 10 days

Cc1ccc([C@@H]2O[C@H](CO)[C@@H](O)[C@H](O)[C@H]2O)cc1Cc1ccc(-c2ccc(F)cc2)s1.O [canagliflozin hemihydrate]
Impurity RRT0.57 content ([1]; 0 day): 0.01 | Impurity RRT0.67 content ([1]; 0 day): 0.01 | Impurity RRT0.93 content ([1]; 0 day): 0.01 | Impurity RRT1.17 content ([1]; 0 day): 0.01 | Impurity RRT2.25 content ([1]; 0 day): 0.01 | Impurity RRT2.28 content ([1]; 0 day): 0.01 | Number of impurities ([1]; 0 day): 6 | Property (appearance) ([1]; 0 day): White | Total content of impurities ([1]; 0 day): 0.06% | Impurity RRT0.57 content [1, 3]: 0.01 | Impurity RRT0.67 content [1, 3]: 0.01 | Impurity RRT0.93 content [1, 3]: 0.01 | Impurity RRT1.17 content [1, 3]: 0.01 | Impurity RRT2.25 content [1, 3]: 0.01 | Impurity RRT2.28 content [1, 3]: 0.01 | Number of impurities [1, 3]: 6 | Property (appearance) [1, 3]: White | Total content of impurities [1, 3]: 0.05% | Impurity RRT0.57 content [1, 4]: 0.02 | Impurity RRT0.73 content [1, 4]: 0.01 | Impurity RRT0.93 content [1, 4]: 0.01 | Impurity RRT1.12 content [1, 4]: 0.01 | Impurity RRT1.17 content [1, 4]: 0.01 | Impurity RRT2.25 content [1, 4]: 0.01 | Impurity RRT2.28 content [1, 4]: 0.01 | Number of impurities [1, 4]: 7 | Property (appearance) [1, 4]: White | Total content of impurities [1, 4]: 0.08% | Impurity RRT0.57 content [1, 5]: 0.01 | Impurity RRT0.67 content [1, 5]: 0.01 | Impurity RRT0.93 content [1, 5]: 0.02 | Impurity RRT1.17 content [1, 5]: 0.01 | Impurity RRT2.25 content [1, 5]: 0.01 | Impurity RRT2.28 content [1, 5]: 0.01 | Number of impurities [1, 5]: 6 | Property (appearance) [1, 5]: White | Total content of impurities [1, 5]: 0.07% | Weight gained ([1]; high humidity of RH75% for 10 days): about 2.1% | Weight lost ([1]; high temperature of 60° C. for 10 days): about 1.0% | New impurities detected (number) ([1]; light irradiation of 5000LX for 10 days): 1 | Solubility in water [2]: almost insoluble in water
